How the values were obtained:
[1] = biological target: T1, Ah receptor (Mus musculus, UniProt P30561); assay: AhR ligand activity assay (luciferase reporter gene, H1L1.1C2 ligand reporting cells); format: cell-based
T1 construct: endogenous in cells; host or cells: H1L1.1C2 AhR ligand reporting cells
T1 sequence (P30561 10-848): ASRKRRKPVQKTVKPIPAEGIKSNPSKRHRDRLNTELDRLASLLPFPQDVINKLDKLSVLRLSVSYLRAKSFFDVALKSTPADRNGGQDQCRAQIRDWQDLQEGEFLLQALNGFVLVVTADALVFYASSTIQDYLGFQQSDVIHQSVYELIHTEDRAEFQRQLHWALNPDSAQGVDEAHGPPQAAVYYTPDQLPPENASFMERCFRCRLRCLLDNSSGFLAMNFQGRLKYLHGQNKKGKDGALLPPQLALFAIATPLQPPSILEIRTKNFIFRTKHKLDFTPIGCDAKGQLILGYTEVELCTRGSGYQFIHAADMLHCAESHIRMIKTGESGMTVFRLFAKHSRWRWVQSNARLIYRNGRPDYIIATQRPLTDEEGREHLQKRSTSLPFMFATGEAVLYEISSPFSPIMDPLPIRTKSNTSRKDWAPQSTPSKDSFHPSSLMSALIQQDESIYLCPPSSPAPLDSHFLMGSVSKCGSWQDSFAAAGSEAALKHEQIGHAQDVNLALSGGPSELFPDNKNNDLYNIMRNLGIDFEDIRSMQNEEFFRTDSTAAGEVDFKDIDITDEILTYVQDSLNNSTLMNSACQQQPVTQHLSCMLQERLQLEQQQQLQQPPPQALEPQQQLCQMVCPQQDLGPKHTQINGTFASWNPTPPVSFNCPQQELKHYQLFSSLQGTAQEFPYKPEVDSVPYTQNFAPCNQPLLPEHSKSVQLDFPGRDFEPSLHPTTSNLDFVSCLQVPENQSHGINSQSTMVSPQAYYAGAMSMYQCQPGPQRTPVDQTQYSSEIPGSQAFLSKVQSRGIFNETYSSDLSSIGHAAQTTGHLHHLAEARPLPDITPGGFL
Experimental: The ligand activity is determined most preferably by an activity assay described below. In brief, the ligand extracts are added to Ah receptor-containing ligand reporter cells. These cells are then incubated for 4 hours and the cells are lysed to release the formed luciferase. This enzyme typically is measured according to the kit sold by Promega (Madison, Wis., USA.). Luciferase activity is measured by light emission recorded by a luminometer. The luminometer readings are taken after a substrate solution is injected into a well.
The cell line H1L1.1C2 was maintained in a culture medium (DMEM+10% FBS) with G418 at a concentration of 400 μg/ml and incubated under an atmosphere of 37° C., 6% CO2, and 100% humidity. A 96 well sterile cell culture plate with about 30,000 cells per well in 200 μl of the culture medium without G418 was prepared and incubated for at least 12 hours before being dosed for ligand activity assay.
The solvents from the ligand activities were evaporated and the activities were reconstituted in DMSO and 1 μl of this solution was used to dose the ligand reporting cells in a well with 200 μl of culture medium. One row of the reporting cells in each assay plate was dosed with 1 μl of the DMSO solutions of a set of βNF standards to generate a standard dose response curve. The dosed cells were incubated for 6 hours under the same environment as they were maintained. The cells were washed twice with a 1×PBS (pH 6.9) after the incubation and the culture wells were scanned under an inverted microscope to detect any obvious cell number change due to dosing. The cells were lysed by adding 50 μl of a 1×cell lysis reagent (Promega, Madison, Wis., USA) and 10 μl of the lysate from each well were transferred into a corresponding well of a Microlite 2 plate (Dynex Technologies Inc., Chantilly, Va., USA) for luminometer reading. A MLX Microtiter Plate Luminometer (Dynex Technologies Inc.) was programmed to inject 50 μl of a luciferase substrate solution (Promega) into a well, read the light intensities in Relative Light Units (RLU's) generated by the luciferase reaction for 5 seconds after a one second delay following the injection, and take the average of the 5 second readings as a final RLU.
Dose response curves of RLU's vs. doses of βNF standards (ng in each assay well) from each plate were plotted and the RLU's generated by the samples were converted into βNF equivalent (BEQ) as ligand activity by consulting the βNF dose response curve generated from the same plate. Data were reported as ligand activity (in BEQ) vs. treatments or fractions from a purification procedure.

[2] = biological target: T1, Ah receptor; assay: Reduction with NaBH4, phases assayed for biological activity; format: cell-based; settings: saturated NaBH4 in ethanol, overnight, room temperature; data not shown
Experimental: Specified quantity of the compound was pipetted into a glass via for reaction and the solvents were evaporated. A saturated solution (100 μl) of NaBH4 in ethanol (200 proof, Aaper Alcohol and Chemical Co. Shelbyville, Ky., U.S.A.) was added to each reaction tube. The mixture was incubated overnight at room temperature and stopped by adding 200 μl of water. The reactions were extracted with 200 μl of chloroform twice and the chloroform phases were pooled. The solvents from both aqueous and chloroform phases were evaporated and both phases were assayed for biological activities. The chloroform phase was analyzed with electron impact mass spectroscopy as was a blank treated identically but containing no isolate.

[3] = Solubility and stability characterisation of the ligand preparation; format: physicochemical
Experimental: The preferred ligand preparation described below can be characterized by its solubility. The ligand is extractable from tissue by 80% methanol/20% water. After the boiling and acid treatment, the ligand is extractable in chloroform.
The ligand preparation is unstable in base but stable in up to two normal acid for at least 24 hours. The preparation is stable to heating at 37° C. overnight (16 hours) and at 100° C. for 24 hours.

[4] = biological target: T1, Ah receptor; assay: Base treatment followed by ligand activity assay; format: cell-based; settings: 0.1 N KOH, 37° C., overnight
Experimental: An aliquot of methanolic extracts of about 4 ng BEQ was transferred into a cleaned glass vial and the solvents were evaporated. A solution (200 ul) of 0.1 N KOH in water was added into the vial. The vials were incubated at 37° C. overnight. After the incubation, the tubes were cooled down and neutralized slowly with HCl. The treatment mixtures were extracted with 200 μl of chloroform. Chloroform and aqueous phases were separated and the solvents were evaporated. DMSO (10 μl) was added to each tube for activity assay. βNF and blank extracts were treated the same way as for the sample.

[5] = biological target: T1, Ah receptor; assay: Base hydrolysis and methylation, products assayed for biological activity; format: cell-based; settings: same manipulations as for the ligand
Experimental: To 2 μl of methanol with 3 ng BEQ of the sample, 38 μl of methanol of 10 μl of a 0.5 mm KOH in water were added and mixed. The reaction was incubated at 37° C. for 2 hours and stopped by adding 10 μl of 0.5 mmolar HCl in water to bring pH to around 5.0. To the reaction mix, 30 μl of water, 10 μl of methanol, and 50 μl of chloroform were added and mixed. The chloroform phase was separated and kept after centrifugation of the mixture. The chloroform extraction was repeated and the two chloroform phases were pooled. The chloroform phase was split into two parts, one for biological assay and the other for methylation. The same manipulations were performed for 3 ng of βNF in 2 μl of methanol and 2 μl of methanol as controls.
The solvents were evaporated and the products were assayed side by side with the hydrolysis products without methylation.

[6] = biological target: T1, Ah receptor; assay: Heat treatment followed by ligand activity assay; format: cell-based; settings: 100° C. water bath, 30 minutes
Experimental: The methanolic extracts either in methanol or DMSO in a cleaned glass vials were heated in a 100° C. water bath for 30 minutes and the vials were cooled to room temperature. The extracts in the solvents were directly assayed as they were to determine the activities.

For `COc1cc(-c2cc(=O)c3ccccc3o2)ccc1[N+](=O)[O-]` [3′-methoxy-4′-nitroflavone], the “antagonism of the reporter gene response to ITE” value ([1]; AhR antagonist, data not shown) was “block the reporter gene response to the compound in a dose dependent fashion”.
For `COC(=O)c1csc(C(=O)c2c[nH]c3ccccc23)n1` [ITE, 2-(1′-H-indole-3′-carbonyl)-thiazole-4-carboxylic acid methyl ester], the “biological activity after reduction with NaBH4” value [2] was “completely destroyed the biological activity”, the “extractability from tissue by 80% methanol/20% water” value [3] was “extractable” and the stability in base [3] was “unstable”. The “time stable in up to two normal acid” value [3] was “at least 24 hours”, the “stability to heating at 100° C.” value ([3]; 24 hours) was “stable” and the extractability in chloroform ([3]; after the boiling and acid treatment) was “extractable”. For the same molecule, the “stability to heating at 37° C.” value ([3]; overnight (16 hours)) was “stable”, the “biological activity of synthetic compound compared with the isolate” value [1] was “the same biological activity” and the “reporter gene potency relative to βNF” value ([1]; dose response curves after 4 hours of incubation, FIG. 7B) was “about five”.
With `O=c1cc(-c2ccccc2)oc2ccc3ccccc3c12` [βNF, β-Naphthoflavone] the “response of ligand activity to base treatment” value [4] was “did not respond”, the “induction over vehicle control” value ([1]; 0.05 ng of βNF per assay well (200 μl medium), 96 well format) was “two to three” and the “amount generating a distinguishable signal” value ([1]; per assay well, 96 well format) was 0.01 ng. The “change in biological activity after hydrolysis and methylation manipulations” value [5] was “no change” and the “response of ligand activity to heat treatment” value [6] was “did not respond”.

— patent US6916834B2, “Preparations and use of an Ah receptor ligand, 2-(1′H-indole-3′-carbonyl)-thiazole-4-carboxylic acid methyl ester” (Wisconsin Alumni Research Foundation, priority 2001, dated 2005)
